Read-outs that look alike come from different tables or passages of the source.
Legend:
[1] = tested on: human spermatozoa; conditions: cited from earlier work
[2] = tested on: purebred Angus bulls; assay: Example 17: injection into testes of Angus bulls, rate of gain and carcass quality; assay type: in vivo, cattle; conditions: for BODY WEIGHT Final: after one year; for BODY WEIGHT Final / % Fat / % Protein / Rate of Gain: III 500.0 mg tannic acid, IV 500.0 mg ZnSO4.7H2 O, V 250.0 mg + 250.0 mg; for % Fat / % Protein / Rate of Gain / rate of gain vs surgically castrated animals: one year; for Rate of Gain: surgically castrated 1.29; for rate of gain vs surgically castrated animals: vs Group II surgically castrated
Protocol: Ten purebred Angus bulls weighing an average of 400 pounds were divided into five groups, Group I being a control. Each animal in Group I was injected with 5.0 ml of water in each testis. Those in Group II were surgically castrated. The animals in Group III were injected with 500.0 mg of tannic acid, those in Group IV with 500.0 mg of ZnSO4.7H2 O and those in Group V with 250.0 mg of tannic acid and 250.0 mg of ZnSO4.7H2 O.
The animals were fed concentrate and grazed. After one year, they were sacrificed.

[3] = tested on: weaned male rats; assay: Example 12: injection into testes of weaned 30-day old rats; conditions: 60 days, per testis: II 5.0 mg ZnSO4.7H2 O, III 5.0 mg tannic acid, IV 2.5 mg + 2.5 mg
Protocol: Two hundred 30-day old male rats, just weaned, were divided into four groups, Group I being a control. The rats in Group I were injected with 0.05 ml of water into each testis. The rats in Group II were similarly injected with 5.0 mg of ZnSO4.7H2 O, those in Group III with 5.0 mg of tannic acid and those in Group IV with a mixture (Kastrin) containing 2.5 mg tannic acid and 2.5 mg ZnSO4.7H2 O.
Forty of the animals were sacrificed 60 days after treatment. The others were watched for a year.

[4] = tested on: sexually mature cats; assay: Example 16: injection into testes of sexually mature cats; assay type: in vivo, cat
Protocol: Those animals in Group I were injected in each testis with 0.1 ml of water.
The testosterone level for the cats in Group I was 6.8±0.2 ng/ml, for those in Group II 4.1±0.3 ng/ml and less than 1 ng/ml for those in Group III.

[5] = tested on: litter mate dogs, 8 weeks old; assay: Example 13: injection into testes of 8 weeks old litter mate dogs; conditions: Group II, 20.0 mg tannic acid buffered to pH 6.5 into each testis
Protocol: Thirty-eight litter mate dogs, 8 weeks old, were divided into four groups. The dogs in Group I were a control and were injected with 0.2 ml of water into each testis. The animals in Group II were similarly treated in each testis with 20.0 mg of tannic acid buffered to a pH of 6.5. Those in Group III were treated with 20 mg of ZnSO4.7H2 O and those in Group IV with a mixture of 10 mg of tannic acid and 10 mg of ZnSO4.7H2 O.

[6] = tested on: male reproduction of sexually mature rats
Protocol: This example illustrates the effect of zinc sulfate on male reproduction of sexually mature rats when administered in the vas diferens.
Eighty sexually mature male rats were divided into four groups, Group I being a control. The rats in Groups II, III and IV were treated by injecting 0.5, 2.5 and 5.0 mg ZnSO4.7H2 O into the vas diferens.
At the end of 60 days, as in the other examples, the rats were sacrificed.

[7] = tested on: male reproduction of sexually mature rats; conditions: rat; for Testosterone ng/ml serum / Epididymis weight / Prostate weight / Seminal Vesicles weight / Testes weight: i.p.; for Epididymis weight / Prostate weight / Seminal Vesicles weight / Testes weight: sacrificed at 60 days
Protocol: This example illustrates the effect of zinc sulfate on male reproduction of sexually mature rats when administered intraperitoneally.
Four hundred sexually mature rats were divided into four groups, Group I being a control. The rats in Groups II, III and IV were treated daily for 30 days, respectively, with 0.5, 1.0 and 5.0 mg ZnSO4.7H2 O. At the end of 60 days, as in Example 1, the rats were sacrificed.
(§1) ZnSO4 solution was made up from ZnSO4 . 7H2 O salt.
Therefore 0.5 mg, 1.0 mg and 5.0 mg ZnSO4 . 7H2 O correspond to
0.28 mg, 0.56 mg and 2.81 mg ZnSO4 respectively.

[8] = tested on: male reproduction in sexually mature rats; conditions: rat
[9] = tested on: spermatogenesis / testis; assay: General findings: arrest of spermatogenesis and diffusion of zinc after injection into testis; assay type: in vivo; conditions: astringent zinc sulfate, injected in testis
Protocol: Recommended dosages, as above mentioned, depend upon the size and species of the animal and upon the desired result. Recommended dosages for sterilization of adult dogs weighing less than 10 kg is 0.25 ml into each testis of a mixture containing between 10.0 and 25.0 mg of tannic acid and 25.0 mg of ZnSO4.7H2 O. For dogs weighing between 10 and 15 kg, the recommended dose is 0.5 ml into each testis of a mixture containing between 10.0 and 50.0 mg of tannic acid and 50.0 mg of ZnSO4.7H2O. For those dogs weighing between 16 and 20 kg, the recommended dose is 1.0 ml into each testis of a mixture containing between 50.0 and 100.0 mg of tannic acid and between 75.0 and 100.0 mg of ZnSO4.7H2 O. For dogs weighing over 20 kg, the recommended dose is 1.0 ml in each testis of a mixture containing between 50.0 and 125.0 mg of tannic acid and 125.0 mg of ZnSO4.7H2 O.
In the case of puppies between 6 and 8 weeks of age, the recommended dose is 0.05 ml into each testis of a mixture containing 2.0 mg of tannic acid and 5.0 mg of ZnSO4.7H2 O. For puppies over 8 weeks but not sexually mature, the dose is preferably 0.08 ml into each of the testes of a mixture containing 7.0 mg of tannic acid and 7.0 mg of ZnSO4.7H2 O. For adult cats, the recommended dose is 0.1 ml into each testis of a mixture containing 10.0 mg of tannic acid and 10.0 mg of ZnSO4.7H2 O. […]

[10] = tested on: male reproduction of sexually mature rats; conditions: rat
Protocol: This example illustrates the effect of zinc sulfate on male reproduction of sexually mature rats when administered orally.
Three hundred sexually mature rats were divided into three groups, Group I being a control. Group II rats were treated daily with 15.0 mg ZnSO4.7H2 O and Group III rats with 50.0 mg, both groups receiving said treatment for 30 days.
as §1
Therefore 15 and 50 mgZnSO4 . 7H2 O correspond to 8.42 mg, 28.0

[11] = tested on: male reproduction of sexually mature rats; assay: Example 5: zinc sulfate injected into the testes of sexually mature rats; assay type: in vivo; conditions: rat, 0.5, 2.5 and 5.0 mg into the testes
Text: Such injection was made into the midline of each testis with a sterilized needle.

[12] = rat, 0.5, 2.5 and 5.0 mg into the vas deferens, 60 days
[13] = 0.5 mg ZnSO4.7H2 O daily 30 days
[14] = 1.0 mg ZnSO4.7H2 O daily 30 days
[15] = 5.0 mg ZnSO4.7H2 O daily 30 days
[16] = i.p., 0.5, 1.0 and 5.0 mg daily 30 days
[17] = 25 mg ZnSO4.7H2 O into each scrotum, 60 days after
[18] = 25 mg ZnSO4.7H2 O into each scrotum, 60 days after, p<0.001 vs control
[19] = 25 mg into each side of the scrotum
[20] = 25 mg into each side of the scrotum, FIGS. 1 and 2
[21] = oral, 15 mg ZnSO4.7H2 O daily 30 days
[22] = oral, 50 mg ZnSO4.7H2 O daily 30 days
[23] = oral, 15.0 and 50.0 mg daily 30 days

Compound: [Zn] [zinc]
- toxic effects on human spermatozoa ([1]; under certain conditions): can exert toxic effects on human spermatozoa
- sperm motility ([1]; zinc 5 μg/ml (0.075 mM), without albumin): markedly inhibited sperm motility
- sperm motility ([1]; zinc 50 μg/ml (0.75 mM), with 4% albumin): only slightly inhibited sperm motility

Compound: tannic acid
- BODY WEIGHT Final [2]: 826
- % Fat [2]: 18.0%
- % Protein [2]: 18.3%
- Rate of Gain [2]: 1.40 lbs/day
- rate of gain vs surgically castrated animals [2]: faster rate of gain than the surgically castrated animals
- Epididymis weight [3]: 0.31 ± 0.07 gm
- Prostate weight [3]: 0.10 ± 0.05 gm
- Seminal Vesicles Wt. [3]: 0.14 ± 0.04 gm
- Testes weight [3]: 0.46 ± 0.12 gm
- sperm count ([4]; cats, one week, per testis II 10.0 mg tannic acid pH 6.8, III 5.0 mg tannic acid + 5.0 mg ZnSO4.7H2 O, control 230×10^6 /ml): zero
- behaviour / male aggressiveness ([4]; cats, II 10.0 mg tannic acid, III 5.0 mg + 5.0 mg per testis): acted normally
- testosterone level ([4]; cats, II 10.0 mg tannic acid, III 5.0 mg + 5.0 mg per testis, control 6.8±0.2 ng/ml): 4.1 ± 0.3 ng/mL
- weight gain ([4]; in vivo): None of the animals in Groups II or III gained any more weight than those in Group I
- muscular appearance [5]: better muscular appearance than those in the control group

Compound: O=S(=O)([O-])[O-].[Zn+2] [zinc sulfate]
- BODY WEIGHT Final [2]: 910
- % Fat [2]: 20.9%
- % Protein [2]: 17.9%
- Rate of Gain [2]: 1.54 lbs/day
- rate of gain vs surgically castrated animals [2]: faster rate of gain than the surgically castrated animals
- Epididymis weight [3]: 0.10 ± 0.03 gm
- Prostate weight [3]: 0.05 ± 0.02 gm
- Seminal Vesicles Wt. [3]: 0.05 ± 0.02 gm
- Testes weight [3]: 0.21 ± 0.04 gm
- impregnation of females ([6]; rat, 5.0 mg ZnSO4.7H2 O in the vas deferens, mated with females in heat): did not impregnate the females
- effect on spermatogenesis [6, 12]: no effect on spermatogenesis
- weight of the testes, prostate or seminal vesicles [6, 12]: no significant change in the weight of the testes, prostate or seminal vesicles
- pregnancy of females mated ([6]; rat, 0.5 and 2.5 mg ZnSO4.7H2 O in the vas deferens, mated with females in heat): Pregnancy also occurred
- Testosterone ng/ml serum [7, 13]: 6.79 ± 1.34 ng/mL
- Epididymis weight [7, 13]: 0.90 ± 0.02 gm
- Prostate weight [7, 13]: 0.42 ± 0.04 gm
- Seminal Vesicles weight [7, 13]: 0.72 ± 0.04 gm
- Testes weight [7, 13]: 2.94 ± 0.03 gm
- Testosterone ng/ml serum [7, 14]: 6.87 ± 0.58 ng/mL
- Epididymis weight [7, 14]: 0.90 ± 0.02 gm
- Prostate weight [7, 14]: 0.46 ± 0.03 gm
- Seminal Vesicles weight [7, 14]: 0.74 ± 0.04 gm
- Testes weight [7, 14]: 3.05 ± 0.07 gm
- Testosterone ng/ml serum [7, 15]: 6.30 ± 0.68 ng/mL
- Epididymis weight [7, 15]: 0.88 ± 0.04 gm
- Prostate weight [7, 15]: 0.41 ± 0.02 gm
- Seminal Vesicles weight [7, 15]: 0.89 ± 0.07 gm
- Testes weight [7, 15]: 2.74 ± 0.13 gm
- histological changes in the sex organs [7, 16]: no histological changes were observed in the sex organs
- testosterone level [7, 16]: testosterone level was not changed
- weight of the testes, epididymis, prostate or seminal vesicles [7, 16]: no significant reduction in the weight of the testes, epididymis, prostate or seminal vesicles
- impregnation of females in heat ([7]; treated intraperitoneally, mated with females in heat): impregnated the females
- Prostate weight [8, 17]: 0.82 ± 0.06 gm
- Seminal Ves weight [8, 17]: 1.20 ± 0.02 gm
- Epididymis weight [8, 18]: 0.56 ± 0.06 gm
- Testes weight [8, 18]: 1.42 ± 0.09 gm
- weight of the prostate and seminal vesicles [8, 19]: no difference, however, in the weight of the prostate and seminal vesicles
- weight of the testes and epididymis [8, 19]: significant reduction in the weight of the testes and epididymis
- pregnancy of females mated ([8]; 25 mg into each side of the scrotum, mated with females in heat): No pregnancy resulted
- testosterone levels ([8]; 25 mg into each side of the scrotum, vs control): no significant reduction in testosterone levels
- condition of the Leydig cells (histology of the testes) [8, 20]: no difference in the condition of the Leydig cells
- condition of the sex cells (histology of the testes) [8, 20]: significant change in the condition of the sex cells
- diffusion of zinc beyond epididymis and prostate [9]: no diffusion beyond that
- diffusion of zinc to the epididymis and prostate [9]: some diffusion of the zinc to the epididymis and prostate
- Epididymis weight [10, 21]: 0.94 ± 0.03 gm
- Prostate weight [10, 21]: 0.44 ± 0.03 gm
- Seminal Vesicles weight [10, 21]: 0.73 ± 0.04 gm
- Testes weight [10, 21]: 2.88 ± 0.17 gm
- Testosterone ng/ml serum [10, 21]: 6.25 ± 1.68 ng/mL
- Epididymis weight [10, 22]: 0.91 ± 0.04 gm
- Prostate weight [10, 22]: 0.42 ± 0.02 gm
- Seminal Vesicles weight [10, 22]: 0.78 ± 0.04 gm
- Testes weight [10, 22]: 2.94 ± 0.13 gm
- Testosterone ng/ml serum [10, 22]: 6.57 ± 0.58 ng/mL
- histological changes in the male reproductive organs [10, 23]: No histological changes were observed
- testosterone levels [10, 23]: no change was noted in testosterone levels
- weight of the testes, epididymis, prostate or seminal vesicles [10, 23]: no significant change in the weight of the testes, epididymis, prostate or seminal vesicles
- impregnation of females in heat ([10]; treated orally, mated with females in heat): impregnated the females
- testosterone level [11]: decrease in the testosterone level
- pregnancy of females mated ([11]; mated with females in heat): No pregnancy resulted
- weight of the male reproductive organs ([11]; reduction increased with the dose): significant reduction in the weight of the male reproductive organs
